Reference: patent publication US20130225508A1, “PEPTIDE CAPABLE OF BINDING TO IMMUNOGLOBULIN” (priority 2010, published 2013)
Values belong to the molecule of their own block, whether it stands above or below them. No end group written: not given here.

Experiments:
[1] = Evaluation of solubility of peptides in water (PBS or physiological saline); format: physicochemical; settings: solvent PBS or physiological saline
Method: Water solubility was evaluated for peptides in which various kinds of hydrophilic amino acid were substituted for the 4th and 5th amino acids which were verified in (1) to be allowed to be mutated. The peptides listed in Table 2 were synthesized by GL Biochem (Shanghai). Among the peptides listed in Table 2, peptides SP1 to SP7 are peptides in which various kinds of hydrophilic amino acid were substituted for the 4th and 5th amino acids.
In Table 3, the circle symbol is assigned to a peptide which was dissolved in a solvent (PBS or physiological saline) at a concentration of 10 mg/ml or higher, and the cross symbol is assigned to a peptide which was not dissolved at a concentration of 1 mg/ml. […] In the subsequent experiments, the peptides in which the 4th and 5th amino acids were substituted by hydrophilic amino acids were used.

[2] = system: adjuvant-induced arthritis; test: Adjuvant arthritis rat model; format: in vivo, Lewis/CrlCrlj rats; parameters: key to Redness scores (left hind-limb) / Redness scores (right hind-limb): 0 = no redness, 4 = severe redness; key to Scores of swelling in the instep (left hind-limb) / Scores of swelling in the instep (right hind-limb): 0 = no swelling, 4 = severe swelling; key to Scores of swelling in knuckle joints (left hind-limb) / Scores of swelling in knuckle joints (right hind-limb): 0 = no swelling, 4 = swelling of all the digits; settings: 10 mg/kg oral from day 10
Text: Male Lewis/CrlCrlj (SPF) rats were used to investigate the arthritis suppressing effect of a peptide of the present invention on adjuvant-induced arthritis. Forty-five rats were purchased from Charles River Laboratories Japan, Inc., and fed normal chow and allowed to acclimate for 7 days before used (the range of body weights was from 193.3 to 218.3 g at the beginning of use).
In an agate motor, dead tubercle bacilli (Mycobacterium butyricum; Lot No. 0260570, Difco) were pulverized. Then, liquid paraffin was added in small amounts to spread the pulverized bacilli well, so as to allow them to be emulsified at 1.0 mg/mL. The resultant emulsion was used after verification to ensure that the pulverized bacilli had been allowed to be finely emulsified, using an NM MICRONIZER (Nippon Seiki Co., Ltd.).
A right hind-limb of the respective rats was exposed, and 100 μL of the emulsion was intradermally injected once into a footpad of the right hind-limb using a 25G-needle attached syringe, to cause arthritis (day 0).
Each of the groups was comprised of 5 animals.
Arthritis was evaluated only for the hind-limbs, based on the criteria described below:
Score 0: no swelling Score 1: swelling of not more than two digits Score 2: swelling of three digits Score 3: swelling of four digits Score 4: swelling of all the digits
Score 0: no swelling Score 1: mild swelling Score 2: modest swelling Score 3: rather severe swelling Score 4: severe swelling
Score 0: no redness Score 1: mild redness Score 2: modest redness Score 3: rather severe redness Score 4: severe redness (iii) Measurement of Foot Volumes of Left And Right Hind-Limbs
Measurement was performed using a plethysmometer (UNICOM TK105). The increasing rate foot volume (percentage of paw swelling, paw swelling %) was calculated by the following formula:
Percent paw swelling (%)=[(Vt−Vo)/Vo]×100
In addition, in these examinations, the percent change of edema relative to day 10 post-adjuvant was calculated, in order to assess the effect of treatment with the test substances.
Data are expressed by mean±standard error. Since the uniformity of variance was not verified in testing between the negative and the positive control groups, testing for significant difference was performed by Aspin-Welch t-test. Since the uniformity of variance was not verified in testing for significant differences of the respective test-substance administered groups relative to the positive control group, assessment was performed by Dunnett's multiple comparison test after Kruskal-Wallis testing, using non-parametric procedures. Differences were considered to be statistically significant at p values of less than 0.05.

IL-1β in plasma = IL-1β in plasma of adjuvant arthritis rats (ELISA); format: in vivo, rat; settings: day 21 post-adjuvant; 10 mg/kg oral from day 10
Method: (§1) TNF-α and IL-1β in plasma were measured in a double-point method using the TNF-α ELISA kit (Lbis® TNF-α-rat) and the IL-1β ELISA kit (Quantikine® Rat IL-1β/IL-1F2).
(§2) On day 21 post-adjuvant, the animals were subjected to autopsy, and plasma was prepared to measure IL-1β and TIN-α concentrations in plasma. In all the groups for which measurements were made, the concentration of TNF-α was below the detection limit (8 pg/mL).

TNF-α in plasma = TNF-α in plasma of adjuvant arthritis rats (ELISA); format: in vivo, rat; settings: day 21 post-adjuvant; 10 mg/kg oral from day 10
Method: as §1, §2

Molecule: PGLDHF [SP3, PGLDHF]
solubility [1]: ≥ 10000 µg/mL

Molecule: PGLERF [SP5, PGLERF]
solubility [1]: ≥ 10000 µg/mL

Molecule: Cc1oncc1C(=O)Nc1ccc(C(F)(F)F)cc1 [Reflumide]
Percent increase in foot volume relative to pre-adjuvant (left hind-limb) ([2]; Day 0 post-adjuvant): 0.00 ± 0.0%
Percent increase in foot volume relative to pre-adjuvant (right hind-limb) ([2]; Day 0 post-adjuvant): 0.00 ± 0.0%
Redness scores (left hind-limb) ([2]; Day 0 post-adjuvant): 0.0 ± 0.0
Redness scores (right hind-limb) ([2]; Day 0 post-adjuvant): 0.0 ± 0.0
Scores of swelling in knuckle joints (left hind-limb) ([2]; Day 0 post-adjuvant): 0.0 ± 0.0
Scores of swelling in knuckle joints (right hind-limb) ([2]; Day 0 post-adjuvant): 0.0 ± 0.0
Scores of swelling in the instep (left hind-limb) ([2]; Day 0 post-adjuvant): 0.0 ± 0.0
Scores of swelling in the instep (right hind-limb) ([2]; Day 0 post-adjuvant): 0.0 ± 0.0
Total scores (left hind-limb) ([2]; Day 0 post-adjuvant): 0.0 ± 0.0
Total scores (right hind-limb) ([2]; Day 0 post-adjuvant): 0.0 ± 0.0
Percent increase in foot volume relative to pre-adjuvant (left hind-limb) ([2]; Day 3 post-adjuvant): 13.28 ± 0.4%
Percent increase in foot volume relative to pre-adjuvant (right hind-limb) ([2]; Day 3 post-adjuvant): 13.33 ± 0.4%
Redness scores (left hind-limb) ([2]; Day 3 post-adjuvant): 0.0 ± 0.0
Redness scores (right hind-limb) ([2]; Day 3 post-adjuvant): 0.0 ± 0.0
Scores of swelling in knuckle joints (left hind-limb) ([2]; Day 3 post-adjuvant): 0.0 ± 0.0
Scores of swelling in knuckle joints (right hind-limb) ([2]; Day 3 post-adjuvant): 0.0 ± 0.0
Scores of swelling in the instep (left hind-limb) ([2]; Day 3 post-adjuvant): 0.0 ± 0.0
Scores of swelling in the instep (right hind-limb) ([2]; Day 3 post-adjuvant): 0.0 ± 0.0
Total scores (left hind-limb) ([2]; Day 3 post-adjuvant): 0.0 ± 0.0
Total scores (right hind-limb) ([2]; Day 3 post-adjuvant): 0.0 ± 0.0
Percent increase in foot volume relative to pre-adjuvant (left hind-limb) ([2]; Day 7 post-adjuvant): 18.56 ± 3.3%
Percent increase in foot volume relative to pre-adjuvant (right hind-limb) ([2]; Day 7 post-adjuvant): 26.75 ± 1.4%
Redness scores (left hind-limb) ([2]; Day 7 post-adjuvant): 0.4 ± 0.2
Redness scores (right hind-limb) ([2]; Day 7 post-adjuvant): 0.6 ± 0.2
Scores of swelling in knuckle joints (left hind-limb) ([2]; Day 7 post-adjuvant): 0.4 ± 0.2
Scores of swelling in knuckle joints (right hind-limb) ([2]; Day 7 post-adjuvant): 0.2 ± 0.2
Scores of swelling in the instep (left hind-limb) ([2]; Day 7 post-adjuvant): 0.4 ± 0.2
Scores of swelling in the instep (right hind-limb) ([2]; Day 7 post-adjuvant): 1.0 ± 0.0
Total scores (left hind-limb) ([2]; Day 7 post-adjuvant): 1.2 ± 1.6
Total scores (right hind-limb) ([2]; Day 7 post-adjuvant): 1.8 ± 0.5
Percent increase in foot volume relative to pre-adjuvant (left hind-limb) ([2]; Day 10 post-adjuvant): 22.94 ± 3.6%
Percent increase in foot volume relative to pre-adjuvant (right hind-limb) ([2]; Day 10 post-adjuvant): 49.75 ± 15.8%
Redness scores (left hind-limb) ([2]; Day 10 post-adjuvant): 0.8 ± 0.4
Redness scores (right hind-limb) ([2]; Day 10 post-adjuvant): 1.2 ± 0.2
Scores of swelling in knuckle joints (left hind-limb) ([2]; Day 10 post-adjuvant): 1.4 ± 0.4
Scores of swelling in knuckle joints (right hind-limb) ([2]; Day 10 post-adjuvant): 1.6 ± 0.6
Scores of swelling in the instep (left hind-limb) ([2]; Day 10 post-adjuvant): 0.6 ± 0.4
Scores of swelling in the instep (right hind-limb) ([2]; Day 10 post-adjuvant): 1.4 ± 0.4
Total scores (left hind-limb) ([2]; Day 10 post-adjuvant): 2.8 ± 1.4
Total scores (right hind-limb) ([2]; Day 10 post-adjuvant): 4.2 ± 1.5
Percent increase in foot volume relative to day 10 post-adjuvant (left hind-limb) ([2]; Day 14 post-adjuvant): −2.2 ± 1.6%
Percent increase in foot volume relative to day 10 post-adjuvant (right hind-limb) ([2]; Day 14 post-adjuvant): −1.3 ± 2.9^ %
Percent increase in foot volume relative to pre-adjuvant (left hind-limb) ([2]; Day 14 post-adjuvant): 20.13 ± 3.2%
Percent increase in foot volume relative to pre-adjuvant (right hind-limb) ([2]; Day 14 post-adjuvant): 46.22 ± 10.7%
Redness scores (left hind-limb) ([2]; Day 14 post-adjuvant): 0.4 ± 0.2
Redness scores (right hind-limb) ([2]; Day 14 post-adjuvant): 1.2 ± 0.2
Scores of swelling in knuckle joints (left hind-limb) ([2]; Day 14 post-adjuvant): 0.6 ± 0.4
Scores of swelling in knuckle joints (right hind-limb) ([2]; Day 14 post-adjuvant): 1.4 ± 0.4
Scores of swelling in the instep (left hind-limb) ([2]; Day 14 post-adjuvant): 0.2 ± 0.2
Scores of swelling in the instep (right hind-limb) ([2]; Day 14 post-adjuvant): 1.2 ± 0.2
Total scores (left hind-limb) ([2]; Day 14 post-adjuvant): 1.2 ± 1.0
Total scores (right hind-limb) ([2]; Day 14 post-adjuvant): 3.8 ± 1.0
Percent increase in foot volume relative to day 10 post-adjuvant (left hind-limb) ([2]; Day 17 post-adjuvant): 1.2 ± 6.3%
Percent increase in foot volume relative to day 10 post-adjuvant (right hind-limb) ([2]; Day 17 post-adjuvant): −3.4 ± 2.8%
Percent increase in foot volume relative to pre-adjuvant (left hind-limb) ([2]; Day 17 post-adjuvant): 24.18 ± 7.7%
Percent increase in foot volume relative to pre-adjuvant (right hind-limb) ([2]; Day 17 post-adjuvant): 43.17 ± 11.2%
Redness scores (left hind-limb) ([2]; Day 17 post-adjuvant): 0.6 ± 0.6
Redness scores (right hind-limb) ([2]; Day 17 post-adjuvant): 0.8 ± 0.2
Scores of swelling in knuckle joints (left hind-limb) ([2]; Day 17 post-adjuvant): 0.6 ± 0.4
Scores of swelling in knuckle joints (right hind-limb) ([2]; Day 17 post-adjuvant): 0.0 ± 0.0
Scores of swelling in the instep (left hind-limb) ([2]; Day 17 post-adjuvant): 0.2 ± 0.2
Scores of swelling in the instep (right hind-limb) ([2]; Day 17 post-adjuvant): 1.2 ± 0.2
Total scores (left hind-limb) ([2]; Day 17 post-adjuvant): 1.4 ± 1.5
Total scores (right hind-limb) ([2]; Day 17 post-adjuvant): 2.0 ± 0.0
Percent increase in foot volume relative to day 10 post-adjuvant (left hind-limb) ([2]; Day 21 post-adjuvant): −1.4 ± 6.1%
Percent increase in foot volume relative to day 10 post-adjuvant (right hind-limb) ([2]; Day 21 post-adjuvant): −5.9 ± 4.1%
Percent increase in foot volume relative to pre-adjuvant (left hind-limb) ([2]; Day 21 post-adjuvant): 20.93 ± 7.3%
Percent increase in foot volume relative to pre-adjuvant (right hind-limb) ([2]; Day 21 post-adjuvant): 38.93 ± 9.5%
Redness scores (left hind-limb) ([2]; Day 21 post-adjuvant): 0.6 ± 0.6
Redness scores (right hind-limb) ([2]; Day 21 post-adjuvant): 1.4 ± 0.4
Scores of swelling in knuckle joints (left hind-limb) ([2]; Day 21 post-adjuvant): 0.4 ± 0.4
Scores of swelling in knuckle joints (right hind-limb) ([2]; Day 21 post-adjuvant): 0.6 ± 0.6
Scores of swelling in the instep (left hind-limb) ([2]; Day 21 post-adjuvant): 0.4 ± 0.4
Scores of swelling in the instep (right hind-limb) ([2]; Day 21 post-adjuvant): 1.4 ± 0.4
Total scores (left hind-limb) ([2]; Day 21 post-adjuvant): 1.4 ± 1.8
Total scores (right hind-limb) ([2]; Day 21 post-adjuvant): 3.4 ± 1.8
Concentrations of IL-1β in plasma (IL-1β in plasma): 13.0 ± 2.5 pg/mL
Concentrations of TNF-α in plasma (TNF-α in plasma): N.D (N.D.: below detection limit)

More lines, now with the values ahead:

solubility [1]: ≥ 10000 µg/mL
Molecule: PGLDKF [SP1, PGLDKF]

solubility [1]: ≥ 10000 µg/mL
Molecule: PGLSSF [SP7, PGLSSF]
